Source: ChEMBL document CHEMBL4196150, “Structurally Diverse Highly Oxygenated Triterpenoids from the Roots of Ailanthus altissima and Their Cytotoxicity” (J Nat Prod, 2018)

Columns and labels:
Type in all cases: functional, cell-based
786-0 = experiment: Cytotoxicity against human 786-O cells after 72 hrs by MTT assay; details: 786-0, 72 h
HepG2 = experiment: Cytotoxicity against human HepG2 cells after 72 hrs by MTT assay; details: HepG2, 72 h
HeLa = experiment: Cytotoxicity against human HeLa cells after 72 hrs by MTT assay
A549 = experiment: Cytotoxicity against human A549 cells after 72 hrs by MTT assay; details: A549, 72 h

SMILES	IC50 (786-0) [µM]	IC50 (HepG2) [µM]	IC50 (HeLa) [µM]	IC50 (A549) [µM]
C[C@@H](C[C@@H](O)[C@H](O)C(C)(C)O)[C@@H]1CC[C@]2(C)C3=CC[C@H]4C(C)(C)C(=O)CC[C@]4(C)[C@H]3CC[C@@]12C	> 40	> 40	> 40	> 40
C=C(C)[C@H](O)[C@H]1C=C([C@@H]2CC=C3[C@]4(C)[C@H](O)C[C@H]5C(C)(C)OC(=O)C=C[C@]5(C)[C@H]4[C@H](OC(=O)/C(C)=C/C)C[C@]32C)C(=O)O1	> 40	> 40	> 40	> 40
CC(C)(O)[C@@H]1OC[C@H]([C@@H]2CC[C@]3(C)C4=CC[C@H]5C(C)(C)C(=O)CC[C@]5(C)[C@H]4CC[C@@]23C)C[C@H]1O	> 40	> 40	> 40	> 40
CC(C)(O)[C@@H]1OC[C@H]([C@@H]2CC[C@]3(C)C4=CC(=O)[C@H]5C(C)(C)C(=O)CC[C@]5(C)[C@H]4CC[C@@]23C)C[C@H]1O	> 40	> 40	> 40	> 40
C/C=C(\C)C(=O)O[C@@H]1C[C@]2(C)C(=CC[C@H]2C2=C[C@H]([C@H](O)C(C)(C)OC)OC2=O)[C@]2(C)[C@H](O)C[C@H]3C(C)(C)OC(=O)C=C[C@]3(C)[C@@H]12	> 40	> 40	> 40	> 40
CC1(C)C(=O)CC[C@]2(C)[C@H]3C[C@@H](O)[C@@H]4[C@@H]([C@]5(C)CCC(=O)O5)CC[C@@]4(C)[C@]3(C)CC[C@@H]12	> 40	> 40	> 40	> 40
C/C=C(\C)C(=O)O[C@@H]1C[C@]2(C)C(=CC[C@H]2[C@@H]2C[C@H]([C@H](O)C(C)(C)OC)O[C@H]2OC)[C@]2(C)[C@H](O)C[C@H]3C(C)(C)OC(=O)C=C[C@]3(C)[C@@H]12	> 40	> 40	> 40	> 40
COC(C)(C)[C@@H](O)[C@H]1C=C([C@@H]2CC(=O)[C@@H]3[C@@]2(C)CC[C@@H]2[C@@]4(C)C=CC(=O)OC(C)(C)[C@@H]4C[C@@H](OC(C)=O)[C@]23C)C(=O)O1	> 40	> 40	> 40	> 40
COC(=O)CC[C@]1(C)[C@H]2CC[C@@]3(C)[C@H]([C@@H](C)C[C@@H](O)[C@H](O)C(C)(C)O)CC[C@]3(C)C2=CC[C@H]1C(C)(C)O	27.4	35.5	38.4	38.6
C/C=C(\C)C(=O)O[C@@H]1C[C@]2(C)C(=CC[C@H]2C2=C[C@H]([C@H](O)C(C)(C)O)OC2=O)[C@]2(C)[C@H](O)C[C@H]3C(C)(C)OC(=O)C=C[C@]3(C)[C@@H]12	> 40	> 40	> 40	> 40
C/C=C(\C)C(=O)O[C@@H]1C[C@]2(C)C(=CC[C@H]2C2=CO[C@@H]([C@H](O)C(C)(C)O)C2)[C@]2(C)[C@H](O)C[C@H]3C(C)(C)OC(=O)C=C[C@]3(C)[C@@H]12	34.4	38.8	33.2	39.8
C/C=C(\C)C(=O)O[C@@H]1C[C@]2(C)C(=CC[C@H]2[C@@H]2C[C@H]([C@H](O)C(C)(C)OC)O[C@@H]2OC)[C@]2(C)[C@H](O)C[C@H]3C(C)(C)OC(=O)C=C[C@]3(C)[C@@H]12	8.2	38.8	38.4	12.5
CC1(C)C(=O)CC[C@]2(C)[C@H]3CC[C@@H]4[C@@H]([C@]5(C)CCC(=O)O5)CC[C@@]4(C)[C@]3(C)CC[C@@H]12 [CABRALELACTONE]	> 40	> 40	> 40	> 40
COc1cc2c(c(OC)c1OC)-c1ccc(OC)c(=O)cc1[C@@H](NC(C)=O)CC2 [COLCHICINE]	0.022	0.078	–	0.043
